Laboratory results: patent publication US20150105252A1, “SUBSTITUTED PYRAZOLES AS HERBICIDES” (E I DU PONT DE NEMOURS AND COMPANY, priority 2013, published 2015)

What was measured:
[1] = test system: johnsongrass; test: Test C preemergence; assay type: in vivo, Sorghum halepense
Summary of the method: (§1)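 Visual rating, 0–100 scale (0 no effect, 100 complete control), vs untreated controls after 13–15 d greenhouse. Pre: seeds in loam/sand, treated at sowing. Post: plants in peat-based mix, 1- to 4-leaf (2–18 cm). Solvent + surfactant formulation, non-phytotoxic.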

[2] = test system: blackgrass; test: Test C preemergence; assay type: in vivo, Alopecurus myosuroides
Summary of the method: as §1

[3] = test system: morningglory; test: Test C preemergence; assay type: in vivo, Ipomoea coccinea
Summary of the method: as §1

[4] = test system: ragweed; test: Test C postemergence; assay type: in vivo, Ambrosia elation
Summary of the method: as §1

[5] = test system: ryegrass, Italian; test: Test C preemergence; assay type: in vivo, Lolium multiflorum
Summary of the method: as §1

[6] = test system: blackgrass; test: Test C postemergence; assay type: in vivo, Alopecurus myosuroides; conditions: for Plant response rating (scale of 0 to 100 where 0 is no effect and 100 is complete control), Blackgrass: Postemergence, 31 g ai/ha, visually evaluated after 13 to 15 days; for Blackgrass plant response rating / Plant response rating, Blackgrass: postemergence; for Blackgrass plant response rating: 62 g ai/ha, scale 0 to 100
Summary of the method: as §1

[7] = test system: pigweed; test: Test C postemergence; assay type: in vivo, Amaranthus retroflexus; conditions: for Pigweed plant response rating / Plant response rating, Pigweed: postemergence; for Pigweed plant response rating: 62 g ai/ha, scale 0 to 100
Summary of the method: as §1

[8] = test system: pigweed; test: Test C preemergence; assay type: in vivo, Amaranthus retroflexus
Summary of the method: as §1

[9] = test system: morningglory; test: Test C postemergence; assay type: in vivo, Ipomoea coccinea; conditions: for Plant response rating (scale of 0 to 100 where 0 is no effect and 100 is complete control), Morningglory: Postemergence, 31 g ai/ha, visually evaluated after 13 to 15 days; for Morningglory plant response rating / Plant response rating, Morningglory: postemergence; for Morningglory plant response rating: 62 g ai/ha, scale 0 to 100
Summary of the method: as §1

[10] = test system: barnyardgrass; test: Test C preemergence; assay type: in vivo, Echinochloa crus-galli
Summary of the method: as §1

[11] = preemergence, 31 g ai/ha, visual rating, scale 0 to 100 (0 no effect, 100 complete control), 13 to 15 days
[12] = preemergence, 62 g ai/ha, scale 0 to 100 (0 no effect, 100 complete control), 13 to 15 days
[13] = preemergence, 125 g ai/ha, scale 0 to 100, 0 is no effect, 100 is complete control
[14] = Postemergence, 31 g ai/ha, visually evaluated after 13 to 15 days
[15] = postemergence, 250 g ai/ha, scale 0 to 100 (0 no effect, 100 complete control)
[16] = postemergence, 125 g ai/ha, scale 0 to 100, 0 no effect, 100 complete control
[17] = 250 g ai/ha, scale 0 to 100 (0 no effect, 100 complete control)
[18] = 125 g ai/ha, scale 0 to 100, 0 no effect, 100 complete control
[19] = preemergence, 125 g ai/ha, 13 to 15 days, scale 0 to 100, 0 = no effect, 100 = complete control
[20] = preemergence, 250 g ai/ha, scale 0 to 100, 0 is no effect, 100 is complete control

Row | SMILES | Johnsongrass plant response rating [1, 11] | Johnsongrass plant response rating [1, 12] | Blackgrass plant response rating [2, 11] | Blackgrass plant response rating [2, 12] | Morningglory plant response rating [3, 11] | Morningglory plant response rating [3, 12] | Plant response rating, Ragweed [4, 15] | Plant response rating, Ragweed [4, 16] | Ryegrass, Italian plant response rating [5, 11] | Ryegrass, Italian plant response rating [5, 12] | Plant response rating (scale of 0 to 100 where 0 is no effect and 100 is complete control), Blackgrass [6] | Blackgrass plant response rating [6] | Plant response rating, Blackgrass [6, 17] | Plant response rating, Blackgrass [6, 18] | Pigweed plant response rating [7] | Plant response rating, Pigweed [7, 17] | Plant response rating, Pigweed [7, 18] | Pigweed plant response rating [8, 11] | Pigweed plant response rating [8, 12] | Plant response rating (scale of 0 to 100 where 0 is no effect and 100 is complete control), Morningglory [9] | other results
1 | CCc1cc(C(=O)NOC(C)C)nn1Cc1ccnc(OC(F)F)c1 [Compound 126] | 40 | 85 | 55 | 60 | 55 | 70 | 80 | 55 | 15 | 60 | 5 | 5 | 25 | 20 | 50 | 65 | 40 | 100 | 85 | 40 | Plant response rating (scale of 0 to 100), Johnsongrass ([1]; Preemergence, 250 g ai/ha): 98; Johnsongrass plant response rating [1, 13]: 95; Plant response rating (scale of 0 to 100), Blackgrass ([2]; Preemergence, 250 g ai/ha): 90; Blackgrass plant response rating [2, 13]: 90; Plant response rating (scale of 0 to 100), Morningglory ([3]; Preemergence, 250 g ai/ha): 100; Morningglory plant response rating [3, 13]: 98; Plant response rating (scale of 0 to 100 where 0 is no effect and 100 is complete control), Ragweed [4, 14]: 30; Ragweed plant response rating ([4]; postemergence, 62 g ai/ha, scale 0 to 100): 35; Plant response rating (scale of 0 to 100), Ryegrass, Italian ([5]; Preemergence, 250 g ai/ha): 90; Ryegrass, Italian plant response rating [5, 13]: 90; Plant response rating (scale of 0 to 100 where 0 is no effect and 100 is complete control), Pigweed [7, 14]: 25; Plant response rating (scale of 0 to 100), Pigweed ([8]; Preemergence, 250 g ai/ha): 100; Pigweed plant response rating [8, 13]: 100; Morningglory plant response rating [9]: 60; Plant response rating, Morningglory [9, 17]: 80; Plant response rating, Morningglory [9, 18]: 80; Plant response rating (scale of 0 to 100), Barnyardgrass ([10]; Preemergence, 250 g ai/ha): 100; Barnyardgrass plant response rating ([10]; preemergence, 31 g ai/ha, scale 0 to 100 (0 no effect, 100 complete control), 13 to 15 days): 75; Barnyardgrass plant response rating [10, 12]: 100; Barnyardgrass plant response rating [10, 13]: 100
2 | CCCc1cc(C(=O)NC2CC2)nn1Cc1ccnc(OC(F)F)c1 [Compound 205] | 70 | 80 | 80 | 95 | 100 | 100 | 80 | 60 | 60 | 70 | 5 | 5 | 30 | 5 | 85 | 100 | 85 | 95 | 100 | 65 | Plant response rating, Johnsongrass [1, 19]: 90; Johnsongrass plant response rating [1, 20]: 100; Plant response rating, Blackgrass [2, 19]: 95; Blackgrass plant response rating [2, 20]: 100; Plant response rating, Morningglory [3, 19]: 100; Morningglory plant response rating [3, 20]: 100; Plant response rating, Ryegrass, Italian [5, 19]: 90; Ryegrass, Italian plant response rating [5, 20]: 95; Plant response rating, Pigweed [8, 19]: 100; Pigweed plant response rating [8, 20]: 100; Morningglory plant response rating [9]: 70; Plant response rating, Morningglory [9, 17]: 95; Plant response rating, Morningglory [9, 18]: 80; Barnyardgrass plant response rating [10, 11]: 85; Barnyardgrass plant response rating [10, 12]: 98; Plant response rating, Barnyardgrass [10, 19]: 100; Barnyardgrass plant response rating [10, 20]: 100
